In patent US20240261258A1, “Presurgical Perineural Administration of Resiniferatoxin For Reduction of Post-Operative Pain” (Sorrento Therapeutics, Inc., priority 2021, published 2024):
Marks after values point to notes of the source that are not given here.

System: left stifle joint
Assay: Necropsy and histopathology of stifle joints
Format: in vivo, dog
Conditions: for Bone remodeling with increased osteoblasts/osteoclasts: Mild, number of dogs / Bone remodeling with increased osteoblasts/osteoclasts: Minimal, number of dogs / Bone remodeling with increased osteoblasts/osteoclasts: Moderate, number of dogs / Bone remodeling with increased osteoblasts/osteoclasts: number of dogs with the finding / Collagen (picosirius red stain): number of dogs with the finding / Non-epiphyseal cartilage: Mild, number of dogs / Non-epiphyseal cartilage: Minimal, number of dogs / Non-epiphyseal cartilage: Moderate, number of dogs / Non-epiphyseal cartilage: number of dogs with the finding / Screw holes with intraluminal hemorrhage: Mild, number of dogs / Screw holes with intraluminal hemorrhage: number of dogs with the finding / Soft tissue mononuclear inflammation: Mild, number of dogs / Soft tissue mononuclear inflammation: Minimal, number of dogs / Soft tissue mononuclear inflammation: number of dogs with the finding / Synovial hypertrophy/hyperplasia: Mild, number of dogs / Synovial hypertrophy/hyperplasia: Minimal, number of dogs / Synovial hypertrophy/hyperplasia: Moderate, number of dogs / Synovial hypertrophy/hyperplasia: number of dogs with the finding: left stifle joint, 4 examined; for Average collagen score left leg (picosirius red): operated left stifle; for Average collagen score right leg (picosirius red): un-operated right stifle
Description: These findings were confirmed during necropsy.
It was characterized by plump, variably piled synoviocytes with slightly more prominent fibrillary projections into the synovial spaces as compared to the control right stifle joints. Some control un-operated right stifle joints also occasionally had minimal synovial hypertrophy/hyperplasia typified by slightly plump, variably piled synoviocytes, but lacked increased fibrillary projections.
Soft tissue mononuclear inflammation was seen as small collections of lymphocytes, macrophages, and/or plasma cells or increased numbers of diffusely scattered mononuclear cells. The inflammation was commonly seen in the synovial lining subjacent to the synoviocytes, or in soft tissues that remained attached to the bone/joint. The incidences and average severity grades were not remarkably different between left joint groups.
Bone remodeling with increased osteoblasts/osteoclasts was characterized by irregular areas of bone/callous formation. Some areas of bone remodeling had increased cellularity due to increased numbers of osteoblasts and osteoclasts that outlined bone.
Presence of cartilage on the operated sides was presumptively interpreted to represent areas of residual cartilage in the physis which had been shifted/transposed by the TPLO surgery, and/or new cartilage formation. The amount of cartilage in each section was subjectively graded using the H&E and toluidine blue stains. […] Any differences could also be influenced by differences in physeal cartilage amounts/extent of physeal closure between dogs, and by plane-of-section variabilities.
A collagen score for each of the stifle joint slides stained with picosirius red was assigned based on the qualitative estimate of collagen present on the slide. The average of the three slides per joint was recorded. An overall collagen score for the left and right stifle joints for each group was calculated by averaging the individual collagen scores. […] The average collagen scores of groups 1-4 for the operated left legs were slightly higher than the corresponding un-operated right leg group average collagen scores. Higher collagen in the operated legs seemed consistent with post-surgical healing processes.

For `C=C(C)[C@]12C[C@@H](C)[C@@]34O[C@](Cc5ccccc5)(O[C@@H]1[C@@H]3C=C(COC(=O)Cc1ccc(O)c(OC)c1)C[C@]1(O)C(=O)C(C)=C[C@@H]41)O2` [RTX, resiniferatoxin], the “Microscopic changes in the left stifle joints” value (all RTX groups, day 56) was “No microscopic changes in the left stifle joints suggestive of RTX-related toxicity”, the “Callus at removal of the TPLO plate” value (all stifles, confirmed during necropsy) was “normal callus” and the “Bone remodeling with increased osteoblasts/osteoclasts: Mild, number of dogs” value (Group 1 High (25 μg)) was 2. For the same molecule, the “Bone remodeling with increased osteoblasts/osteoclasts: Minimal, number of dogs” value (Group 1 High (25 μg)) was 2, the “Bone remodeling with increased osteoblasts/osteoclasts: Moderate, number of dogs” value (Group 1 High (25 μg)) was 0 and the “Bone remodeling with increased osteoblasts/osteoclasts: number of dogs with the finding” value (Group 1 High (25 μg)) was “(4)”. The “Collagen (picosirius red stain): number of dogs with the finding” value (shortened to “Collagen (picosirius red stain): number”) (Group 1 High (25 μg)) was “(4)”, the “Non-epiphyseal cartilage: Mild, number of dogs” value (shortened to “Non-epiphyseal cartilage: Mild”) (Group 1 High (25 μg)) was 1 and the “Non-epiphyseal cartilage: Minimal, number of dogs” value (“Non-epiphyseal cartilage: Minimal” below) (Group 1 High (25 μg)) was 1. The “Non-epiphyseal cartilage: Moderate, number of dogs” value (“Non-epiphyseal cartilage: Moderate” for short) (Group 1 High (25 μg)) was 2, the “Non-epiphyseal cartilage: number of dogs with the finding” value (shortened to “Non-epiphyseal cartilage: number”) (Group 1 High (25 μg)) was “(4)” and the “Screw holes with intraluminal hemorrhage: Mild, number of dogs” value (“Screw holes … Mild, number of dogs” below) (Group 1 High (25 μg)) was 4. For the same molecule, the “Screw holes with intraluminal hemorrhage: number of dogs with the finding” value (from here on “Screw holes … with the finding”) (Group 1 High (25 μg)) was “(4)”, the “Soft tissue mononuclear inflammation: Mild, number of dogs” value (Group 1 High (25 μg)) was 1 and the “Soft tissue mononuclear inflammation: Minimal, number of dogs” value (Group 1 High (25 μg)) was 3. The “Soft tissue mononuclear inflammation: number of dogs with the finding” value (Group 1 High (25 μg)) was “(4)”, the “Synovial hypertrophy/hyperplasia: Mild, number of dogs” value (Group 1 High (25 μg)) was 4 and the “Synovial hypertrophy/hyperplasia: Minimal, number of dogs” value (Group 1 High (25 μg)) was 0. For the same molecule, the “Synovial hypertrophy/hyperplasia: Moderate, number of dogs” value (Group 1 High (25 μg)) was 0, the “Synovial hypertrophy/hyperplasia: number of dogs with the finding” value (“Synovial hypertrophy/hyperplasia: number” for short) (Group 1 High (25 μg)) was “(4)” and the “Bone remodeling with increased osteoblasts/osteoclasts: Mild, number of dogs” value (Group 2 Low (6.25 μg)) was 2. For the same molecule, the “Bone remodeling with increased osteoblasts/osteoclasts: Minimal, number of dogs” value (Group 2 Low (6.25 μg)) was 1, the “Bone remodeling with increased osteoblasts/osteoclasts: Moderate, number of dogs” value (Group 2 Low (6.25 μg)) was 1 and the “Bone remodeling with increased osteoblasts/osteoclasts: number of dogs with the finding” value (Group 2 Low (6.25 μg)) was “(4)^a”. For the same molecule, the “Collagen (picosirius red stain): number” value (Group 2 Low (6.25 μg)) was “(4)^a”, the “Non-epiphyseal cartilage: Mild” value (Group 2 Low (6.25 μg)) was 1 and the “Non-epiphyseal cartilage: Minimal” value (Group 2 Low (6.25 μg)) was 1. For the same molecule, the “Non-epiphyseal cartilage: Moderate” value (Group 2 Low (6.25 μg)) was 2, the “Non-epiphyseal cartilage: number” value (Group 2 Low (6.25 μg)) was “(4)^a” and the “Screw holes … Mild, number of dogs” value (Group 2 Low (6.25 μg)) was 4. For the same molecule, the “Screw holes … with the finding” value (Group 2 Low (6.25 μg)) was “(4)^a”, the “Soft tissue mononuclear inflammation: Mild, number of dogs” value (Group 2 Low (6.25 μg)) was 4 and the “Soft tissue mononuclear inflammation: Minimal, number of dogs” value (Group 2 Low (6.25 μg)) was 0. For the same molecule, the “Soft tissue mononuclear inflammation: number of dogs with the finding” value (Group 2 Low (6.25 μg)) was “(4)^a”, the “Synovial hypertrophy/hyperplasia: Mild, number of dogs” value (Group 2 Low (6.25 μg)) was 3 and the “Synovial hypertrophy/hyperplasia: Minimal, number of dogs” value (Group 2 Low (6.25 μg)) was 0. For the same molecule, the “Synovial hypertrophy/hyperplasia: Moderate, number of dogs” value (Group 2 Low (6.25 μg)) was 1, the “Synovial hypertrophy/hyperplasia: number” value (Group 2 Low (6.25 μg)) was “(4)^a” and the “Bone remodeling with increased osteoblasts/osteoclasts: Mild, number of dogs” value (Group 3 Local (50 μg)) was 2. For the same molecule, the “Bone remodeling with increased osteoblasts/osteoclasts: Minimal, number of dogs” value (Group 3 Local (50 μg)) was 0, the “Bone remodeling with increased osteoblasts/osteoclasts: Moderate, number of dogs” value (Group 3 Local (50 μg)) was 2 and the “Bone remodeling with increased osteoblasts/osteoclasts: number of dogs with the finding” value (Group 3 Local (50 μg)) was “(4)”. For the same molecule, the “Collagen (picosirius red stain): number” value (Group 3 Local (50 μg)) was “(4)”, the “Non-epiphyseal cartilage: Mild” value (Group 3 Local (50 μg)) was 2 and the “Non-epiphyseal cartilage: Minimal” value (Group 3 Local (50 μg)) was 0. For the same molecule, the “Non-epiphyseal cartilage: Moderate” value (Group 3 Local (50 μg)) was 2, the “Non-epiphyseal cartilage: number” value (Group 3 Local (50 μg)) was “(4)” and the “Screw holes … Mild, number of dogs” value (Group 3 Local (50 μg)) was 4. For the same molecule, the “Screw holes … with the finding” value (Group 3 Local (50 μg)) was “(4)”, the “Soft tissue mononuclear inflammation: Mild, number of dogs” value (Group 3 Local (50 μg)) was 2 and the “Soft tissue mononuclear inflammation: Minimal, number of dogs” value (Group 3 Local (50 μg)) was 2. The “Soft tissue mononuclear inflammation: number of dogs with the finding” value (Group 3 Local (50 μg)) was “(4)”, the “Synovial hypertrophy/hyperplasia: Mild, number of dogs” value (Group 3 Local (50 μg)) was 3 and the “Synovial hypertrophy/hyperplasia: Minimal, number of dogs” value (Group 3 Local (50 μg)) was 0. The “Synovial hypertrophy/hyperplasia: Moderate, number of dogs” value (Group 3 Local (50 μg)) was 1, the “Synovial hypertrophy/hyperplasia: number” value (Group 3 Local (50 μg)) was “(4)” and the “Average collagen score left leg (picosirius red)” value (shortened to “Average collagen score left leg”) (Group 1 High (25 μg)) was 2.9. The “Average collagen score left leg” value (Group 2 Low (6.25 μg)) was 2.6, the “Average collagen score left leg” value (Group 3 Local (50 μg)) was 3.0 and the “Average collagen score right leg (picosirius red)” value (shortened to “Average collagen score right leg”) (Group 1 High (25 μg)) was 2.3. For the same molecule, the “Average collagen score right leg” value (Group 2 Low (6.25 μg)) was 2.3 and the “Average collagen score right leg” value (Group 3 Local (50 μg)) was 2.4.
